Test results: patent EP1282414B1, “FELBAMATE DERIVED COMPOUNDS FOR TREATING NEUROPATHIC PAIN” (University of Virginia Patent Foundation, priority 2000, dated 2001)

What was measured:
[1] = tested on: MES-induced seizure spread; test: Maximal Electroshock Seizure (MES) test, mice i.p.; format: in vivo; settings: for MES, number of animals protected / total number of animals tested: mice i.p.
Description: (§1) The fluoro derivatives synthesized were submitted to the National Institute of Neurological Disorders and Stroke (NINDS) for evaluation in a standard panel of assays. Two convulsant tests (MES and scMET), and a toxicity screen (rotorod in mice, positional sense and gait in rats) were employed for evaluating the compounds activity as neuroprotecting agents. These testing procedures are described in detail in Molecular and Cellular Targets for Anti-epileptic Drugs, eds. G. Avanzini, G. Regesta, P. Tanganelli, M. Avoli, 1997, John Libbey & Company Ltd, pp 191-198. The felbamate derivatives were evaluated for anticonvulsant activity following intraperitoneal (i.p.) administration in mice and oral administration in rats.
The MES test is a model for generalized tonic-clonic seizures and is used to identify compounds which prevent seizure spread. The behavioral and electrographic seizures generated in this model are consistent with the human disorder. In the MES test, an electrical stimulus of 0.2 s in duration (50 mA in mice and 150 mA in rat at 60Hz) was delivered via corneal electrodes primed with an electrolyte solution containing an anesthetic agent. […] Rats were tested at time intervals between 0.25 and 4 hours following a standard oral dose of 30 mg/kg. Abolition of the hindlimb tonic extensor component indicates the test compound's ability to inhibit MES-induced seizure spread.
(§2) For the MES and scMET tests the data is presented in the form of the number of animals protected by the administered compound / total number of animals tested. […] Qualitative data was obtained for fluoro felbamate 12 (Tables 1 and 2A), fluoro monocarbamate felbamate 13 (Tables 1 and 2B), and fluorodioxo 16 (Tables 1 and 2C) and for cyclic felbamate 21 (Tables 5 and 6B) and cyclic monocarbamate 22 (Tables 5 and 6A). More extensive quantitative data was also obtained for fluoro felbamate 12 in mice (Table 3) and rats (Table 4).

[2] = tested on: pentylenetetrazol; test: Subcutaneous Metrazol seizure test (scMET), mice i.p.; format: in vivo, Carworth Farms No. 1 mice; settings: mice i.p.
Description: as §1
This is a model that primarily identifies compounds that raise seizure threshold. With some minor exceptions, the pharmacological profile of the scMET seizure model is consistent with the human condition. The scMET test utilizes a dose of pentylenetetrazol (85 mg/kg in Carworth Farms No. 1 mice and 70 mg/kg in Sprague-Dawley rats) that induces clonic seizures lasting for a period of at least five seconds in 97 % (CD97) of animals tested. At the anticipated time of testing the convulsant is administered subcutaneously. The test compound is administered intraperitoneally in mice and orally in rats. Animals are observed over a 30 minute period. Absence of clonic spasms in the observed time period indicates a compound's ability to abolish the effect of pentylenetetrazol on seizure threshold.
as §2

[3] = tested on: mice; test: Minimal neurotoxicity (TOX), rotorod test, mice i.p.; format: in vivo; settings: mice i.p.
Description: as §1, with “G. Avanzini, G. Regesta, P. Tanganelli, M. Avoli, 1997, John Libbey & Company Ltd, pp 191-198.” left out, “rats. […]” for “rats.”

[4] = tested on: MES-induced seizure spread; test: Maximal Electroshock Seizure (MES) test, rats p.o.; format: in vivo, rat; settings: for MES, number of animals protected / total number of animals tested: rat p.o., 30 mg/kg; for anti-seizure activity (in words): rats
Description: as §1
The MES test is a model for generalized tonic-clonic seizures and is used to identify compounds which prevent seizure spread. The behavioral and electrographic seizures generated in this model are consistent with the human disorder. In the MES test, an electrical stimulus of 0.2 s in duration (50 mA in mice and 150 mA in rat at 60Hz) was delivered via corneal electrodes primed with an electrolyte solution containing an anesthetic agent. Mice were tested at 30 minutes and 4 hours following doses of 30, 100 and 300 mg/kg of test compound. Rats were tested at time intervals between 0.25 and 4 hours following a standard oral dose of 30 mg/kg. Abolition of the hindlimb tonic extensor component indicates the test compound's ability to inhibit MES-induced seizure spread.
as §2

[5] = tested on: rats; test: Minimal neurotoxicity (TOX), positional sense and gait and stance tests, rats p.o.; format: in vivo; settings: rat p.o., 30 mg/kg
Description: as §1, with “G. Avanzini, G. Regesta, P. Tanganelli, M. Avoli, 1997, John Libbey & Company Ltd, pp 191-198.” left out
Rats are examined for behavioral toxicity by the positional sense test and a gait and stance test. […] In the gait and stance test, neurotoxicity is indicated by a circular or zigzag gait, ataxia, abnormal spread of the legs, abnormal posture, tremor hyperactivity, lack of exploratory behavior, somnolence, stupor or catalepsy. […]

SMILES	MES, number of animals protected / total number of animals tested ([1]; 30 mg/kg, 0.5h)	MES, number of animals protected / total number of animals tested ([1]; 100 mg/kg, 0.5h)	MES, number of animals protected / total number of animals tested ([1]; 300 mg/kg, 0.5h)	ScMET, number of animals protected / total number of animals tested ([2]; 30 mg/kg, 0.5h)	ScMET, number of animals protected / total number of animals tested ([2]; 100 mg/kg, 0.5h)	ScMET, number of animals protected / total number of animals tested ([2]; 300 mg/kg, 0.5h)	TOX, number of animals exhibiting toxic effects / total number of animals tested ([3]; 30 mg/kg, 0.5h)	TOX, number of animals exhibiting toxic effects / total number of animals tested ([3]; 100 mg/kg, 0.5h)	TOX, number of animals exhibiting toxic effects / total number of animals tested ([3]; 300 mg/kg, 0.5h)	MES, number of animals protected / total number of animals tested ([4]; 0.25h)	MES, number of animals protected / total number of animals tested ([4]; 0.5h)	MES, number of animals protected / total number of animals tested ([4]; 1.0h)	MES, number of animals protected / total number of animals tested ([4]; 2.0h)	MES, number of animals protected / total number of animals tested ([4]; 4.0h)	anti-seizure activity (in words) [4]	TOX, number of animals exhibiting toxic effects / total number of animals tested ([5]; 0.25h)	TOX, number of animals exhibiting toxic effects / total number of animals tested ([5]; 0.5h)	TOX, number of animals exhibiting toxic effects / total number of animals tested ([5]; 1.0h)	TOX, number of animals exhibiting toxic effects / total number of animals tested ([5]; 2.0h)	TOX, number of animals exhibiting toxic effects / total number of animals tested ([5]; 4.0h)	other results
O=C1NC(O)C(c2ccccc2)CO1 (stereo not shown) [Cyclic MCF]	0/1	0/3	1/1	0/1	2/5	2/5	0/4	0/8	0/4	0/4	0/4	1/4	2/4	3/4	potent activity	0/4	0/4	0/4	0/4	0/4	MES, number of animals protected / total number of animals tested ([1]; 30 mg/kg, 2.0h): 0/1; MES, number of animals protected / total number of animals tested ([1]; 100 mg/kg, 2.0h): 2/3; MES, number of animals protected / total number of animals tested ([1]; 300 mg/kg, 2.0h): 1/1; ScMET, number of animals protected / total number of animals tested ([2]; 30 mg/kg, 2.0h): 0/1; ScMET, number of animals protected / total number of animals tested ([2]; 100 mg/kg, 2.0h): 0/1; ScMET, number of animals protected / total number of animals tested ([2]; 300 mg/kg, 2.0h): 0/1; TOX, number of animals exhibiting toxic effects / total number of animals tested ([3]; 30 mg/kg, 2.0h): 0/2; TOX, number of animals exhibiting toxic effects / total number of animals tested ([3]; 100 mg/kg, 2.0h): 0/4; TOX, number of animals exhibiting toxic effects / total number of animals tested ([3]; 300 mg/kg, 2.0h): 0/2
O=C1NC(=O)C(F)(c2ccccc2)CO1 (stereo not shown) [fluoro dioxo, 5-Fluoro-5-phenyl-1,3-oxazinane-2,4-dione]	0/1	0/3	0/1	0/1	0/1	0/1	0/4	0/8	1/4	0/4	1/4	1/4	1/4	2/4	strong anti-seizure activity	0/4	0/4	0/4	0/4	0/4	anti-seizure activity (in words) ([1]; mice): inactive; MES, number of animals protected / total number of animals tested ([1]; 30 mg/kg, 4.0h): 0/1; MES, number of animals protected / total number of animals tested ([1]; 100 mg/kg, 4.0h): 0/3; MES, number of animals protected / total number of animals tested ([1]; 300 mg/kg, 4.0h): 0/1; ScMET, number of animals protected / total number of animals tested ([2]; 30 mg/kg, 4.0h): 0/1; ScMET, number of animals protected / total number of animals tested ([2]; 100 mg/kg, 4.0h): 0/1; ScMET, number of animals protected / total number of animals tested ([2]; 300 mg/kg, 4.0h): 0/1; TOX, number of animals exhibiting toxic effects / total number of animals tested ([3]; 30 mg/kg, 4.0h): 0/2; TOX, number of animals exhibiting toxic effects / total number of animals tested ([3]; 100 mg/kg, 4.0h): 0/4; TOX, number of animals exhibiting toxic effects / total number of animals tested ([3]; 300 mg/kg, 4.0h): 0/2
NC(=O)OCC(F)(CO)c1ccccc1 (stereo not shown) [fluoro monocarbamate felbamate, 2-Fluoro-2-phenyl-1,3-propanediol monocarbamate]	0/1	2/3	1/1	0/1	0/1	1/1	0/4	3/8	2/4	0/4	3/4	0/4	1/4	0/4	–	0/4	0/4	0/4	0/4	0/4	MES, number of animals protected / total number of animals tested ([1]; 30 mg/kg, 4.0h): 0/1; MES, number of animals protected / total number of animals tested ([1]; 100 mg/kg, 4.0h): 0/3; MES, number of animals protected / total number of animals tested ([1]; 300 mg/kg, 4.0h): 0/1; MES protection (in words) ([1]; mice, 100 mg/kg): moderate MES protection; ScMET, number of animals protected / total number of animals tested ([2]; 30 mg/kg, 4.0h): 0/1; ScMET, number of animals protected / total number of animals tested ([2]; 100 mg/kg, 4.0h): 0/1; ScMET, number of animals protected / total number of animals tested ([2]; 300 mg/kg, 4.0h): 0/1; TOX, number of animals exhibiting toxic effects / total number of animals tested ([3]; 30 mg/kg, 4.0h): 0/2; TOX, number of animals exhibiting toxic effects / total number of animals tested ([3]; 100 mg/kg, 4.0h): 0/4; TOX, number of animals exhibiting toxic effects / total number of animals tested ([3]; 300 mg/kg, 4.0h): 0/2
